Assay results: ChEMBL document CHEMBL1201862, “PubChem BioAssay data set” (2004)
Counter-ions that a name gives are not always drawn.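 Cultured in 96-well plates, cells were exposed to test compound for 48 hours across five concentrations. GI50: concentration for 50% inhibition of growth.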 Active and inactive are the calls of the source. Rule as the data show it: active = GI50 up to about 1.1 µM and inactive = higher.

Assays:
Test in all cases: NCI anticancer screen, dose series, 48 h
DMS-114 = test system: DMS-114
KM-20L2 = test system: KM-20L2
RXF 631 = test system: RXF 631
M19-MEL = test system: M19-MEL
HOP-18 = test system: HOP-18
DLD-1 = test system: DLD-1
XF498 = test system: XF498
LXFL 529 = test system: LXFL 529
DMS-273 = test system: DMS-273

SMILES	GI50 (DMS-114)	GI50 (KM-20L2)	GI50 (RXF 631)	GI50 (M19-MEL)	GI50 (HOP-18)	GI50 (DLD-1)	GI50 (XF498)	GI50 (LXFL 529)	GI50 (DMS-273)
COc1ccc(-c2cc(O)c3cc(Cl)ccc3n2)cc1	> 100 µM (inactive)	> 100 µM (inactive)	> 100 µM (inactive)	> 100 µM (inactive)	54.5 µM (inactive)	> 100 µM (inactive)	> 100 µM (inactive)	> 100 µM (inactive)	
CCC1CN2CCc3cc(OC)c(OC)cc3C2CC1CC1c2cc(OC)c(OC)cc2CCN1C(=O)C(Cc1c[nH]c2ccccc12)NC(=O)OC(C)(C)C (stereo unspecified)	1.38 µM (inactive)	1.87 µM (inactive)		1.69 µM (inactive)	4.13 µM (inactive)	8.39 µM (inactive)	1.78 µM (inactive)	3.94 µM (inactive)	6.53 µM (inactive)
N#CC(C#N)SCc1ccccc1	24.4 µM (inactive)	32.3 µM (inactive)		54.1 µM (inactive)		36.6 µM (inactive)		33.7 µM (inactive)	39.2 µM (inactive)
COC(=O)C1=C(C[S+]([O-])c2ccccc2[N+](=O)[O-])ON(C)C1c1ccccc1 (stereo unspecified)	24.7 µM (inactive)	21.5 µM (inactive)		47 µM (inactive)	52.2 µM (inactive)	30.9 µM (inactive)	31.1 µM (inactive)	42 µM (inactive)	28.1 µM (inactive)
COc1ccc(-c2ccccc2)c(N/N=C2\CCCNC2=O)c1	> 100 µM (inactive)	> 100 µM (inactive)		> 100 µM (inactive)	> 100 µM (inactive)	> 100 µM (inactive)	18.7 µM (inactive)	> 100 µM (inactive)	> 100 µM (inactive)
O=C(CCc1nnc2s/c(=C\c3ccccc3Cl)c(=O)n12)Nc1cc(Cl)ccc1Cl	> 100 µM (inactive)			> 100 µM (inactive)	> 100 µM (inactive)	> 100 µM (inactive)	70.8 µM (inactive)	> 100 µM (inactive)	
CC1CC(c2ccc(Cl)c(Cl)c2)=Nc2ccccc2S1 (stereo unspecified)	> 100 µM (inactive)	> 100 µM (inactive)		> 100 µM (inactive)	> 100 µM (inactive)	> 100 µM (inactive)	> 100 µM (inactive)	> 100 µM (inactive)	> 100 µM (inactive)
O=[N+]([O-])c1nccn1COCCF	> 100 µM (inactive)	> 100 µM (inactive)		> 100 µM (inactive)		> 100 µM (inactive)	> 100 µM (inactive)	> 100 µM (inactive)	
C[n+]1c2ccccc2c(NC(CCCNC(=N)N)C(=O)O)c2ccccc21 (stereo unspecified)	> 100 µM (inactive)	> 100 µM (inactive)		> 100 µM (inactive)	> 100 µM (inactive)	> 100 µM (inactive)	> 100 µM (inactive)	> 100 µM (inactive)	> 100 µM (inactive)
[O-]/N=[N+](/[O-])C1CCCCC1=[N+]1CCOCC1 (stereo unspecified)	> 100 µM (inactive)			> 100 µM (inactive)			0.157 µM (active)	> 100 µM (inactive)	
COc1ccc2[nH]c3c(c2c1)[C@H]1CCC(C(C)(C)C)C[C@H]1[C@H]1C(=O)N(c2ccccc2)C(=O)[C@@H]31 (stereo partly specified)	21.9 µM (inactive)	> 51.4 µM (inactive)	6.15 µM (inactive)	26.1 µM (inactive)	25.6 µM (inactive)	13.5 µM (inactive)	9.91 µM (inactive)	69.3 µM (inactive)	32.7 µM (inactive)
COC(=O)/C(C=O)=C/Sc1ccccc1	16.7 µM (inactive)	29.7 µM (inactive)	14.9 µM (inactive)	20 µM (inactive)	> 100 µM (inactive)	21.4 µM (inactive)	40 µM (inactive)	18.3 µM (inactive)	18.4 µM (inactive)
CN1c2ccccc2N(C)C23N(C)c4ccccc4N(C)C12N(C)c1ccccc1N3C (stereo unspecified)	> 100 µM (inactive)	> 100 µM (inactive)	> 100 µM (inactive)	> 100 µM (inactive)		> 100 µM (inactive)	49.1 µM (inactive)		> 100 µM (inactive)
CC(C)OP(=O)(OC(C)C)/C(=N/Nc1ccc([N+](=O)[O-])cc1)NN	61.1 µM (inactive)	> 100 µM (inactive)		> 100 µM (inactive)		> 100 µM (inactive)	68.9 µM (inactive)	41.5 µM (inactive)	> 100 µM (inactive)
O=C1C(Cl)=C(Cl)C(=O)N1C1C2CC3CC(C2)CC1C3 (stereo unspecified)	> 100 µM (inactive)	> 100 µM (inactive)		> 100 µM (inactive)	> 100 µM (inactive)	> 60.1 µM (inactive)	> 100 µM (inactive)	47.5 µM (inactive)	> 100 µM (inactive)
O=C1OC(c2ccccc2)=N/C1=C/NC(Cc1c[nH]c2ccccc12)C(=O)O (stereo unspecified)	> 100 µM (inactive)	> 100 µM (inactive)		> 100 µM (inactive)		> 100 µM (inactive)	> 100 µM (inactive)	> 100 µM (inactive)	> 100 µM (inactive)
O=C1c2ccccc2C(=O)c2nc3c(O)cccc3cc21	3.81 µM (inactive)	26.7 µM (inactive)	36.2 µM (inactive)	2.12 µM (inactive)	24.9 µM (inactive)	9.75 µM (inactive)		4.57 µM (inactive)	6.61 µM (inactive)

SMILES	GI50 (DMS-114)	GI50 (KM-20L2)	GI50 (RXF 631)	GI50 (M19-MEL)	GI50 (HOP-18)	GI50 (DLD-1)	GI50 (XF498)	GI50 (LXFL 529)	GI50 (DMS-273)
CC1=NOC(=O)/C1=C/c1ccc([N+](=O)[O-])cc1	> 100 µM (inactive)	> 100 µM (inactive)	> 100 µM (inactive)		> 100 µM (inactive)	> 100 µM (inactive)	> 100 µM (inactive)		> 100 µM (inactive)
CC(C)(C)/N=C/N1C=Cc2nc3ccccc3cc2C1	> 100 µM (inactive)	> 100 µM (inactive)	> 100 µM (inactive)	> 100 µM (inactive)	> 100 µM (inactive)	34.1 µM (inactive)	> 100 µM (inactive)	> 100 µM (inactive)	> 100 µM (inactive)
CN1CCc2cc(O)c3cc2C1Cc1ccc(cc1)Oc1cc(ccc1O)CC1c2c(cc4c(c2O3)OCO4)CCN1C (stereo unspecified)	18.2 µM (inactive)	18.2 µM (inactive)				75.3 µM (inactive)	14.4 µM (inactive)		24.8 µM (inactive)
Cc1ccc(NCC2(/N=C/c3ccccc3)OC(CO)C(O)C2O)cc1 (stereo unspecified)	40 µM (inactive)	20.8 µM (inactive)				72.4 µM (inactive)	> 100 µM (inactive)	77.6 µM (inactive)	31.2 µM (inactive)
O=c1cc(-c2ccc(Cl)cc2)oc2cc(OCCCOc3ccc4c(=O)cc(-c5ccc(Cl)cc5)oc4c3)ccc12	> 100 µM (inactive)	> 100 µM (inactive)	> 100 µM (inactive)	> 100 µM (inactive)	> 100 µM (inactive)	> 100 µM (inactive)	> 100 µM (inactive)	> 100 µM (inactive)	> 100 µM (inactive)
O=C(CC1(O)C(=O)Nc2ccc(Br)cc21)c1cccc([N+](=O)[O-])c1 (stereo unspecified)		74.6 µM (inactive)	> 100 µM (inactive)		23.6 µM (inactive)	34.5 µM (inactive)		22.5 µM (inactive)	45.8 µM (inactive)
O=C1NC2CCC(C2)C1c1ccccc1 (stereo unspecified)	> 100 µM (inactive)		> 100 µM (inactive)	> 100 µM (inactive)	> 100 µM (inactive)	> 100 µM (inactive)		> 100 µM (inactive)	> 100 µM (inactive)
COC(=O)c1cc(CC(C)C)c2c(c1)[nH]c1ccccc12	50.4 µM (inactive)	> 100 µM (inactive)		> 100 µM (inactive)		> 100 µM (inactive)	> 100 µM (inactive)	> 100 µM (inactive)	53.7 µM (inactive)
CC1=C(O)C(=O)c2cn(C)cc2C1=O	> 100 µM (inactive)	> 100 µM (inactive)		> 100 µM (inactive)	> 100 µM (inactive)	> 100 µM (inactive)	> 100 µM (inactive)	> 100 µM (inactive)	> 100 µM (inactive)
O=c1ccc(=O)c2c(=O)c3ccccc3c(=O)c1=2	29 µM (inactive)			14.3 µM (inactive)		38.2 µM (inactive)	> 100 µM (inactive)	> 100 µM (inactive)	46.7 µM (inactive)
O=C(O)C1c2ccccc2C(C(=O)O)c2ccccc21 (stereo unspecified)	> 100 µM (inactive)	> 100 µM (inactive)		> 100 µM (inactive)	> 100 µM (inactive)	> 100 µM (inactive)		> 100 µM (inactive)	> 100 µM (inactive)
O=C(c1cc2ccccc2[nH]1)C(O)(c1cc2ccccc2[nH]1)c1cc2ccccc2[nH]1	> 246 µM (inactive)	> 246 µM (inactive)	> 246 µM (inactive)			> 246 µM (inactive)		> 246 µM (inactive)	> 246 µM (inactive)
CNc1ccc2ncccc2c1[N+](=O)[O-]	> 100 µM (inactive)	> 100 µM (inactive)	> 100 µM (inactive)	> 100 µM (inactive)	> 100 µM (inactive)	> 100 µM (inactive)	> 100 µM (inactive)	> 100 µM (inactive)	> 100 µM (inactive)
O=c1[nH]c(=O)n([C@H]2CCCO2)cc1F	673 µM (inactive)	824 µM (inactive)		545 µM (inactive)	692 µM (inactive)	615 µM (inactive)	762 µM (inactive)		561 µM (inactive)
O=C1C2C3C=CC(C2C(=O)N1CO)C1C2C(=O)N(CO)C(=O)C2C31 (stereo unspecified)	42 µM (inactive)	> 31.6 µM (inactive)	> 54.6 µM (inactive)	> 68.5 µM (inactive)	43.4 µM (inactive)	> 46.9 µM (inactive)	> 100 µM (inactive)	> 81.1 µM (inactive)	> 44.5 µM (inactive)
Nc1ncn([C@H]2C[C@H](O)[C@@H](CO)O2)c(=O)n1 [DECITABINE]	371 µM (inactive)	> 375 µM (inactive)		5.86 µM (inactive)	> 99.1 µM (inactive)	3.09 µM (inactive)	25.5 µM (inactive)		
CNNCc1ccc(C(=O)NC(C)C)cc1 [PROCARBAZINE HYDROCHLORIDE]		380 µM (inactive)		> 500 µM (inactive)	138 µM (inactive)	> 500 µM (inactive)	> 500 µM (inactive)	> 500 µM (inactive)	> 500 µM (inactive)
